pIC50: −log10 of the molar value. One block for each compound: values may come before it.
How the values were obtained:
sphingomyelinases = experiment: Sphingomyelinase inhibition, HL60 cell sonicate (Table 4, acid or neutral not stated); format: biochemical, Human
Experimental: N-hexyl-sphingosyl phosphorylcholine (AD-2144) was tested as to its inhibitory effect on sphingomyelinases, acidic (i.e., with an optimum at about pH 5) or neutral (with a pH optimum at about pH 7.4). For this purpose a sonicate of HL60 leukemic cells was used as enzyme source. Increasing concentrations of AD-2144 were dispersed by a mixture of fluorescent and non-fluorescent sphingomyelin (Bodipy-C12-SPM:SPM, 1:19), buffer and 0.25% Triton-X100 in a volume of 100 µl. For acid sphingomyelinase 0.4M acetate buffer pH 5.0 was used; for neutral sphingomyelinase 0.2M Tris buffer, pH 7.4 and 5 mM magnesium chloride. To 100 µl of these dispersions, 100 µl of HL60 cells sonicate were added. Incubation was 2-3 hours after which 0.8 ml of chloroform:methanol 2:1 were added, stirred and the lower, chloroform phase was collected, dried and applied to a thin layer chromatography plate. The plate was developed in a mixture of chloroform and methanol, 87:3. The fluorescence of the product, i.e., Bodipy-C12-ceramide, was quantified.
For acid sphingomyelinase as well as for neutral spingomyelinase: at 300 µM of AD-2144 there was a reduction of over 60% in Bodipy-C12-ceramide. […]

TSU-PR1 cells = experiment: TSU-PR1 cytotoxicity by protein content; format: cell-based; conditions: Homo sapiens, 48 h; TSU-PR1, two days, Fig. 2
Experimental: In order to evaluate the generality of AD-2646 compound effect on cell viability, other cell lines were subjected to the same procedures disclosed herein above.
TSU-PR1 cells (prostate cancer cells) were incubated for two days with increasing concentrations of AD-2646. The protein content measurements shown in Fig. 2 indicate that the cells were killed with an IC50 of 6-7 µM.

Bod3-SPM [1] = experiment: Sphingolipid metabolism from Bodipy-C3-ceramide in HL60 cells: Bod3-SPM; format: cell-based, Human; conditions: for pIC50: Homo sapiens, HL-60, 3 h, HL60, 3 hours, 2.5 µM Bodipy-C3-ceramide, cell + medium, read-out: Bod 3-SPM (IC50 for reduction); for inhibition of Bod3-SPM (fluorescent image): HL60, 10 µM
Experimental: (§1) In order to examine the effect of the different compounds on sphingolipids metabolism, different cell lines were incubated with increasing concentrations of different compounds of the invention in the presence of 2.5 µM Bodipy-C3-ceramide that was added to the culture medium as a solution in dimethylsulfoxide (not exceeding 0.1% DMSO of the final volium). After 3 hours, cells and medium were collected and centrifuged. Cells were next extracted with chloroform- methanol containing 2% acetic acid 1:1 (by volume) and the medium was shaken with an equal volume of chloroform-methanol, 1:1 (by volume). The phases were separated by centrifugation and the lower chloroform phase was collected. The solvents were evaporated and applied to thin layer chromatography silica gel plates (Whatman 4865-821) with a concentrating zone.
(§2) Plates were developed as follows: For medium: in chloroform-methanol-H2O, 75:25:4 by volume. For cells: plates were first developed with chloroform-methanol, 9:1, then dried and re-run in chloroform-methanol: H2O, 65:35:4.
(§3) Standards of Bodipy-C3-ceramide: Bodipy-C3-glucosylceramide (Bod3-GC) and Bodipy C3 sphingomyelin (Bod3-SPM) were used as markers. The fluorescence of the respective Bod3-SPM and Bod3-GC spots was quantified using a Fuji FLA-2000 scanner.

HL60 cells [2] = experiment: HL60 cell viability, viable cell count with trypan blue; format: cell-based, Human
Experimental: The effect of AD-2646 on cell viability was analyzed by measuring cell mortality (viable cell count) and/or total protein quantity. HL60 cells grown in RMPI plus 10% fetal calf serum, were incubated with increasing concentrations of (2R,3R)-2-(N-tetradecylamine)-1-(4-nitrophenyl)-1,3-propanediol (AD-2646) in 6- or 24-well dishes. […] After 2 days the cells were collected, washed twice with saline, treated with trypan blue and the number of living (non-blue) cells was counted. Fig. 1 indicates an IC50 value of 5 µM.
Kinetic of the observed killing effect of the AD-2646 compound was next examined. HL60 cells were incubated with 40 µM of AD-2646 for 1, 3, 5 and 7 hours. Already after 1 hour a reduction of 60% of the viable cell number was observed.

Bod3-SPM [3] = experiment: Sphingolipid metabolism from Bodipy-C3-ceramide in TSU-PR1 cells: Bod3-SPM; format: cell-based; conditions: Homo sapiens; TSU-PR1, 3 hours, Fig. 5; read-out: reduction of Bod3-SPM, IC50
Experimental: as §1, §2, §3
The effect of AD-2646 on sphingolipid metabolism was further examined using TSU-PR1 prostate cancer cells. […]

HL60 cells [4] = experiment: HL60 cell viability by total protein content (Bradford); format: cell-based, Human; conditions: for pIC50: HL60, 2 days
Experimental: The effect of the AD-2646 compound on cell viability was further supported when the total protein content was quantified. HL60 cells were incubated as described above, with different concentrations of AD-2646. After 2 days the cells were collected, washed twice with saline, dispersed and following a short pulsing with a probe-sonicator their protein content was quantified by the Bradford procedure. Similarly to the viable cell counting results, the protein measurements indicated an IC50 value of 5 µM.
To analyze whether the AD-2646 compound may mediate its effect on cell viability and on total protein content, in cooperation with other compounds, the cooperative effect of this compound and Taxol was next evaluated. HL60 cells were incubated for two days with 4 µM AD2646 in the presence or absence of 2 ng Taxol. […]
(§4) The effect of different compounds of the invention on cell viability was next evaluated by measuring total cell protein quantity. Different cell lines were incubated for two days in the presence of increasing concentrations of the different compounds of the present invention.

Swiss mice = experiment: In vivo toxicity, mice viability
Experimental: Six groups, each of 5 Swiss mice were injected, intra-peritoneally with solutions of AD-2646, at varying concentrations, each in a volume of 100 µl. Injections were performed on days 1, 2, 3, 4, and mice viability was tested (Table 5).

[5] = tested on: Leishmania major promastigote; experiment: Leishmania major promastigote cell count; format: cell-based; conditions: promastigotes, 3 h, 27°C, cell counting; read-out: IC50 for cell reduction
Experimental: 2 × 10^5 Leishmania major promastigote cell, each in a volume of 100 µl were added to 100 µl medium (RPMI 1640 culture medium complemented with 20% FCS, 1% penicillin and 1% streptomycin) in 96-well plates containing zero and increasing concentrations of (2S,3R)-2-N-aminohexyl-1-(4-N-hexylamiuophenyl)-1,3-propanediol (AD-2663) in 2-fold serial dilution. After incubation period (3 h, 27°C) the number of cells was determined by counting on aliquot from each well on a Neulander cell counter under a microscope. The IC50 for cell reduction was 7 µM.

Bod 3-GC = experiment: Sphingolipid metabolism from Bodipy-C3-ceramide in MCF-NCi cells: Bod3-GC; format: cell-based; conditions: Homo sapiens, 3 hours, 2.5 µM Bodipy-C3-ceramide, read-out: Bod 3-GC (IC50 for reduction)
Experimental: as §1, §2, §3

U937 cells = experiment: Apoptosis in U937 cells, DEVDase/caspase 3 activity kit; format: cell-based; conditions: Homo sapiens, U-937; U937, 5 µM, 24 hours; read-out: number of apoptotic cells relative to control cells
Experimental: Myeloid, leukemic U937 cells were incubated for 24 hours in the absence or in the presence of 5 µM AD-2672 and AD-2665. Cells were then collected and the percent of apoptotic cells was determined using a kit quantifying the DEVDase, caspase 3 activity. The number of apoptotic cells incubated with AD-2672 exceeded 6-fold those in the control cells. Cells incubated with AD-2665 exceeded 2.8-fold those in the control cells.

MCF7-AdrR = experiment: Cell viability by total cell protein quantity, MCF7-AdrR; format: cell-based; conditions: Homo sapiens, 48 h, two days
Experimental: as §4

Bod 3-SPM = experiment: Sphingolipid metabolism from Bodipy-C3-ceramide in MCF-NCi cells: Bod3-SPM; format: cell-based; conditions: Homo sapiens, 3 hours, 2.5 µM Bodipy-C3-ceramide, read-out: Bod 3-SPM (IC50 for reduction)
Experimental: as §1, §2, §3

MCF7-NCi = experiment: Cell viability by total cell protein quantity, MCF7-NCi; format: cell-based; conditions: Homo sapiens, 48 h, two days
Experimental: as §4

Bod3-GC = biological target: T1, Bod3-GC (Homo sapiens, UniProt Q16739); experiment: Sphingolipid metabolism from Bodipy-C3-ceramide in HL60 cells: Bod3-GC; format: cell-based; conditions: HL60, 10 µM, Fig. 6
T1 sequence (Q16739 1-394): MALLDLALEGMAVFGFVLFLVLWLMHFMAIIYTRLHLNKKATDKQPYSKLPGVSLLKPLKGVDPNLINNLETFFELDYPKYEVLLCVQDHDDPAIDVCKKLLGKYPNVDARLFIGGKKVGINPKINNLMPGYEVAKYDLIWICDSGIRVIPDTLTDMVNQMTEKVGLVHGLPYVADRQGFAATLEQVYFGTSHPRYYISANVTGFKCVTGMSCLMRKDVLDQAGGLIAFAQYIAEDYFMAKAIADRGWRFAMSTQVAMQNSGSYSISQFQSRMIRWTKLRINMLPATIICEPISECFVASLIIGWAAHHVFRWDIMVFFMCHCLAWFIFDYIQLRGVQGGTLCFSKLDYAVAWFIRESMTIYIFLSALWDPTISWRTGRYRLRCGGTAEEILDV
Experimental: as §1, §2, §3

pIC50 (Bod 3-GC): 5.00
pIC50 (Bod3-SPM [1]): 5.40
pIC50 (MCF7-AdrR): 5.15
pIC50 (Bod 3-SPM): 5.15
pIC50 (MCF7-NCi): 5.52
Compound: CCCCCCNc1ccc([C@@H](O)[C@@H](CO)NCCCCCC)cc1 [AD-2665, (2R,3R)-2-(N-hexylamine)-1-(4-N-hexylaminophenyl)-1,3-propanediol]
fold induction at 5 µM (U937 cells): 2.8

pIC50 (Bod3-SPM [1]): 5.40
Compound: CCCCCCCCCCCCCCN[C@H](CO)[C@H](O)c1ccc(N)cc1 [AD-2672, (2R,3R)-2-(N-tetradecylamine)-1-(4-aminophenyl)-1,3-propanediol]
fold induction at 5 µM (U937 cells): 6
level of Bod3-SPM (fluorescent image) (Bod3-SPM [1]; HL60, 5 and 10 µM, Fig. 6): strongly reduces the level of Bod3-SPM

pIC50 (Bod3-SPM [1]): 5.22
pIC50 (HL60 cells [4]; Homo sapiens, HL-60, 48 h): 5.12
Compound: CCCCCCCCCCCC(=O)Nc1ccc([C@@H](O)[C@H](N)CO)cc1 [AD-2673]
reduction of the level of Bod3-GC (fluorescent image) (Bod3-GC): much stronger reduction of the level of Bod3-GC
inhibition of Bod3-SPM (fluorescent image) (Bod3-SPM [1]; Fig. 6): low inhibition of Bod3-SPM

The next lines start with the compound.

Compound: CCCCCCCCCCCCC/C=C/[C@H](O)[C@@H](COP(=O)([O-])OCC[N+](C)(C)C)NCCCCCC [AD-2144, N-hexyl-sphingosyl phosphorylcholine]
% reduction in Bodipy-C12-ceramide (sphingomyelinases; AD-2144 concentration 50µl): 30%
% reduction in Bodipy-C12-ceramide (sphingomyelinases; AD-2144 concentration 100µl): 44%
% reduction in Bodipy-C12-ceramide (sphingomyelinases; AD-2144 concentration 150µl): 65%
% reduction in Bodipy-C12-ceramide (sphingomyelinases; AD-2144 concentration 300µl): 82%

Compound: CCCCCCCCCCCCCCN[C@H](CO)[C@H](O)c1ccc([N+](=O)[O-])cc1 [AD-2646, (2R, 3R)-2-(N-tetradecylamine)-1-(4-nitrophenyl)-1,3-propanediol]
pIC50 (TSU-PR1 cells): 5.15 to 5.22
pIC50 (Bod3-SPM [1]): ~5.22
reduction of the viable cell number (HL60 cells [2]; HL60, 40 µM, after 1 hour): 60%
pIC50 (HL60 cells [2]; Homo sapiens, HL-60, 48 h, HL60, 2 days, trypan blue, Fig. 1): 5.30
pIC50 (Bod3-SPM [3]): ~5.30
Protein content (HL60 cells [4]; HL60, two days, 4 µM AD2646 alone): 174 µg
pIC50 (HL60 cells [4]; Homo sapiens, HL-60, 48 h): 5.30
No. of mice in each day (Swiss mice; 1mg/kg intra-peritoneally on days 1-4, group of 5, day 1): 5
No. of mice in each day (Swiss mice; 1mg/kg intra-peritoneally on days 1-4, group of 5, day 2): 5
No. of mice in each day (Swiss mice; 1mg/kg intra-peritoneally on days 1-4, group of 5, day 3): 5
No. of mice in each day (Swiss mice; 1mg/kg intra-peritoneally on days 1-4, group of 5, day 4): 5
No. of mice in each day (Swiss mice; 1mg/kg intra-peritoneally on days 1-4, group of 5, day 5): 5
No. of mice in each day (Swiss mice; 1mg/kg intra-peritoneally on days 1-4, group of 5, day 6): 5
No. of mice in each day (Swiss mice; 5mg/kg intra-peritoneally on days 1-4, group of 5, day 1): 5
No. of mice in each day (Swiss mice; 5mg/kg intra-peritoneally on days 1-4, group of 5, day 2): 5
No. of mice in each day (Swiss mice; 5mg/kg intra-peritoneally on days 1-4, group of 5, day 3): 5
No. of mice in each day (Swiss mice; 5mg/kg intra-peritoneally on days 1-4, group of 5, day 4): 5
No. of mice in each day (Swiss mice; 5mg/kg intra-peritoneally on days 1-4, group of 5, day 5): 5
No. of mice in each day (Swiss mice; 5mg/kg intra-peritoneally on days 1-4, group of 5, day 6): 5

Compound: CCCCCCNc1ccc([C@@H](O)[C@H](CO)NCCCCCC)cc1 [AD-2663, (2S,3R)-2-N-aminohexyl-1-(4-N-hexylamiuophenyl)-1,3-propanediol]
pIC50 [5]: 5.15

Compound: CCCCCCCCCCCC(=O)Nc1ccc([C@H](O)[C@@H](N)CO)cc1 [AD-2674]
reduction of the level of Bod3-GC (fluorescent image) (Bod3-GC): much stronger reduction of the level of Bod3-GC
inhibition of Bod3-SPM (fluorescent image) (Bod3-SPM [1]; Fig. 6): low inhibition of Bod3-SPM

Compound: (2R, 3S)-2-BOC-amino-1-[4-N-(dodecanoyl-12-N-BOC-amine)-phenyl)-1,3-propanediol [AD-2620]
pIC50 (HL60 cells [4]): 5.52

From patent publication EP1430019B1, “SPHINGOLIPIDS” (priority 2001, dated 2003)
